Data: patent US20240190849A1, “AMINOPYRIMIDINE COMPOUNDS AND METHODS OF THEIR USE” (TYRA BIOSCIENCES, INC., priority 2021, published 2024)

Assays:
FGFR3 = target: T1, FGFR3 (Homo sapiens, UniProt P22607); experiment: Kinase binding assay (kinase-tagged T7 phage, affinity beads, qPCR readout), FGFR3; conditions: FGFR binding data
T1 construct: made in house; host or cells: E. coli derived from BL21, infected with T7 phage
Outline: (§1)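 First, streptavidin beads were loaded with biotinylated ligand and blocked. Kinase, beads and compound were then shaken together for 1 hour at room temperature in SeaBlock/PBS/Tween/DTT buffer. Finally, eluted kinase was measured by qPCR and Kd fitted with Hill slope −1.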

[1] = tested on: SNU-16 (Gastric Carcinoma), FGFR2 amplification; experiment: Cancer cell viability assay (Cell Titer-Glo), SNU-16; assay type: cell-based; conditions: Homo sapiens, SNU-16 cells, 72 hours, read-out: SNU16 FGFR2 (IC50 nM)
Text: RT112/84, UM-UC-14, SNU-16 and KG-1 Cancer Cell Line Cell Viability Assays
To detect the change of intracellular ATP by Cell Titer-Glo@ and to evaluate the inhibitory effect of the compounds on cancer cell lines by determining the in vitro IC50 value of the compounds.
Cell Titer-Glo@ 2.0 Luminescent cell viability assay reagent was purchased from Promega (Madison, WI). RT112/84, SNU-16, and KG-1 cell lines were purchased from American Type Culture Collection (Manassas, VA). UM-UC-14 cell line was purchased from Sigma (St. Louis, MO). RT112/84, UM-UC-14, SNU-16, and KG-1 cells were cultured in RPMI1640 media supplemented with 10% fetal bovine serum. Cultures were maintained at 37° C. in a humidified atmosphere of 5% CO2 and 95% air.
Cell Viability Assay Procedure: Cells were plated in 96-well clear bottom/white plates (Corning #3903) at 10,000 cells/well in 100 μl of media, incubated overnight. The next day, test compound DMSO stock solutions were made at 10 mM and 2 μM final concentration. Compounds were then added to cells in a 9-dose, […] dilution series starting at 30 μM with an HP 300e Digital Dispenser (each dose was applied in triplicate). DMSO was backfilled to each well up to 301 nL total volume of test compound+DMSO, and a total of 301 nL DMSO was added to a control/no test compound well in triplicate. The cells in cell culture plates were incubated with the compounds at 37° C. and 5% CO2 for 72 hours. Then 50 μl of Cell Titer Glo 2.0 reagent was added to each well of the cell culture plates. The contents were covered from light and mixed on an orbital shaker at room temperature for 10 min. Luminescence was recorded by a Synergy H1 Microplate Reader (Biotek, Winooski, VT). Cells were assessed as a percentage of DMSO only treated control cells. Curves were plotted and IC50 values were calculated using the GraphPad Prism 8 program based on a sigmoidal dose-response equation (4 parameter).

FGFR3 (V555M) = target: T2, FGFR3 (V555M) (Homo sapiens, UniProt P22607, V555M); experiment: Kinase binding assay (kinase-tagged T7 phage, affinity beads, qPCR readout), FGFR3 (V555M); conditions: FGFR binding data
T2 construct: made in house; host or cells: E. coli derived from BL21, infected with T7 phage
Outline: as §1

FGFR1 = target: T3, FGFR1 (Homo sapiens, UniProt P11362); experiment: Kinase binding assay (kinase-tagged T7 phage, affinity beads, qPCR readout), FGFR1; conditions: FGFR binding data
T3 construct: made in house; host or cells: E. coli derived from BL21, infected with T7 phage
Outline: as §1

FGFR2 = target: T4, FGFR2 (Homo sapiens, UniProt P21802); experiment: Kinase binding assay (kinase-tagged T7 phage, affinity beads, qPCR readout), FGFR2; conditions: FGFR binding data
T4 construct: made in house; host or cells: E. coli derived from BL21, infected with T7 phage
Outline: as §1

T1 sequence (P22607 23-806): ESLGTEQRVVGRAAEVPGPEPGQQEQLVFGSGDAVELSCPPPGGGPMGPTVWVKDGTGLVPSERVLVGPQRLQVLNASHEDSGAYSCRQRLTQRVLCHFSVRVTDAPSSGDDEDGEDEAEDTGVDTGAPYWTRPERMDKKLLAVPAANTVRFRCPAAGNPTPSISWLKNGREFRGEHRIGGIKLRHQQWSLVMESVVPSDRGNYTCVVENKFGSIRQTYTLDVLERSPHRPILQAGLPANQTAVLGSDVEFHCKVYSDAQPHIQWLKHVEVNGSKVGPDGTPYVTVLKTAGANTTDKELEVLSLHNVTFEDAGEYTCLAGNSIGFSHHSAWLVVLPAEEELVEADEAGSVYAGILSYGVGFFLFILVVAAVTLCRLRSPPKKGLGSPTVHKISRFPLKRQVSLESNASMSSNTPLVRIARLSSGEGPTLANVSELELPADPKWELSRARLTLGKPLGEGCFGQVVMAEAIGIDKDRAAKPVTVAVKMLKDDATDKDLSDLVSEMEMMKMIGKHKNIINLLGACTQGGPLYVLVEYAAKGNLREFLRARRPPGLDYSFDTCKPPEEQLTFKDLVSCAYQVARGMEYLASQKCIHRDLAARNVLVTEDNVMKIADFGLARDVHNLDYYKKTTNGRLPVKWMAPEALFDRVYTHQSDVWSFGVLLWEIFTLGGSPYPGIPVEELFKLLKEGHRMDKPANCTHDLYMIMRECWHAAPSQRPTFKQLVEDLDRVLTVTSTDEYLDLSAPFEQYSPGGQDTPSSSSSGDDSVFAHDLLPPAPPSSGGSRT
T2 sequence (P22607 23-806 V555M): as the sequence (P22607 23-806) above, with V533M counted along it
T3 sequence (P11362 22-822): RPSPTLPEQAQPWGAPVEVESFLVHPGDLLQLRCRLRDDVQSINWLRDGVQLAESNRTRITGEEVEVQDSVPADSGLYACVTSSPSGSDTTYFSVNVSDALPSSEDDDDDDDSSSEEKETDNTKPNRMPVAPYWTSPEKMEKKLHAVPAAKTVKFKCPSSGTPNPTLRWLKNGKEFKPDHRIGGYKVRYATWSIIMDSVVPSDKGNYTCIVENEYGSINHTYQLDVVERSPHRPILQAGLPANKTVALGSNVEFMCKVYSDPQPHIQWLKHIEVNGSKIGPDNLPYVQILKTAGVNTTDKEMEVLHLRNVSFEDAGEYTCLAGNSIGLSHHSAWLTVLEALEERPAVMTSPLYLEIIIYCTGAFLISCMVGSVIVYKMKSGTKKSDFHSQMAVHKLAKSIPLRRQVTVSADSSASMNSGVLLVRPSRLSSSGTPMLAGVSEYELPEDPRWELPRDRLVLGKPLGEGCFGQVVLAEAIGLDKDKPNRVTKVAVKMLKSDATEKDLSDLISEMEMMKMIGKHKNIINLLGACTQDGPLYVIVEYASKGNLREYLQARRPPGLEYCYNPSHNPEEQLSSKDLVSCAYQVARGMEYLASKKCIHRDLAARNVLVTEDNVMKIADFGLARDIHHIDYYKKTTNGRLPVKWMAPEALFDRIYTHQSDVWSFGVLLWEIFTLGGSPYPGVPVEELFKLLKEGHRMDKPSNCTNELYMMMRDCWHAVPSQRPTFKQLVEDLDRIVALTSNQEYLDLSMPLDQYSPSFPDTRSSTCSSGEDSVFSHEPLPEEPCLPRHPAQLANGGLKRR
T4 sequence (P21802 22-821): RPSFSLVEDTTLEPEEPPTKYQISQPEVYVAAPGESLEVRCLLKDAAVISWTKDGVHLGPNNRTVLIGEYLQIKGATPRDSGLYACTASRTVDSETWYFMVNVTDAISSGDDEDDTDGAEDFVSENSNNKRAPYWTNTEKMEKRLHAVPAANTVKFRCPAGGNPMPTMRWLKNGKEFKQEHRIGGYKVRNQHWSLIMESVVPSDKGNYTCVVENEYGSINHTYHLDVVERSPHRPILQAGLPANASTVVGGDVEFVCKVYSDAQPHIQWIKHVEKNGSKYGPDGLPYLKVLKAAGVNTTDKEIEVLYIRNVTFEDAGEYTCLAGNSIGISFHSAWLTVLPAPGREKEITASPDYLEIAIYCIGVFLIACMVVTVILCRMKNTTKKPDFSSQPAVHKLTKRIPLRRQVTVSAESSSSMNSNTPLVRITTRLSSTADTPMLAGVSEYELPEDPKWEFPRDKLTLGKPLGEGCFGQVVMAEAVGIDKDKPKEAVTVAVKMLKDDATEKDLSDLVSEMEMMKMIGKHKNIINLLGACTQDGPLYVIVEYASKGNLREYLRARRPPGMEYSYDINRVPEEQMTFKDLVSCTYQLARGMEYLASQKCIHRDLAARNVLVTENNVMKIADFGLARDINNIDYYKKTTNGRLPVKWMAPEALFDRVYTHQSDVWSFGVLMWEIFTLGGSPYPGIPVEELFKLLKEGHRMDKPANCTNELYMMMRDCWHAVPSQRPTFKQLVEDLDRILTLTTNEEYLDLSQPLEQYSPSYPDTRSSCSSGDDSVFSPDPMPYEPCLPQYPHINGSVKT

Kd (FGFR3) | IC50 [1] | Kd (FGFR3 (V555M)) | Kd (FGFR1) | Kd (FGFR2) | SMILES
0.1 to 100 nM | 0.1 to 100 nM | 0.1 to 100 nM | 250 to 1000 nM | 100 to 250 nM | C=CC(=O)Nc1ccc2c(c1)c(C)cn2-c1nc(Nc2cccnc2C)ncc1F [Example 153, N-[1-[5-fluoro-2-[(2-methyl-3-pyridyl)amino]pyrimidin-4-yl]-3-methyl-indol-5-yl]prop-2-enamide]
0.1 to 100 nM | 0.1 to 100 nM | 0.1 to 100 nM | 250 to 1000 nM | 0.1 to 100 nM | C=CC(=O)Nc1ccc2c(-c3nc(Nc4cn(C)nc4C)ncc3F)cn(C)c2c1 [Example 154, N-[3-[2-[(1,3-dimethylpyrazol-4-yl)amino]-5-fluoro-pyrimidin-4-yl]-1-methyl-indol-6-yl]prop-2-enamide]
0.1 to 100 nM | 0.1 to 100 nM | 0.1 to 100 nM | 0.1 to 100 nM | 0.1 to 100 nM | C=CC(=O)Nc1ccc2c(c1)c(C)cn2-c1nc(Nc2cn(CC)nc2C)ncc1F [Example 156, N-[1-[2-[(1-ethyl-3-methyl-pyrazol-4-yl)amino]-5-fluoro-pyrimidin-4-yl]-3-methyl-indol-5-yl]prop-2-enamide]
0.1 to 100 nM | 0.1 to 100 nM | 0.1 to 100 nM | 0.1 to 100 nM | 0.1 to 100 nM | C=CC(=O)Nc1ccc2c(c1)c(C)cn2-c1nc(Nc2cnn(CC(C)O)c2)ncc1F (centres unmarked) [Example 158, N-[1-[5-fluoro-2-[[1-(2-hydroxypropyl)pyrazol-4-yl]amino]pyrimidin-4-yl]-3-methyl-indol-5-yl]prop-2-enamide]
0.1 to 100 nM | 0.1 to 100 nM | 0.1 to 100 nM | 0.1 to 100 nM | 0.1 to 100 nM | C=CC(=O)Nc1ccc2c(c1)c(C)cn2-c1nc(Nc2cn(CC(F)F)nc2C)ncc1F [Example 164, N-[1-[2-[[1-(2,2-difluoroethyl)-3-methyl-pyrazol-4-yl]amino]-5-fluoro-pyrimidin-4-yl]-3-methyl-indol-5-yl]prop-2-enamide]
0.1 to 100 nM | 0.1 to 100 nM | 0.1 to 100 nM | 0.1 to 100 nM | 0.1 to 100 nM | C=CC(=O)Nc1ccc2c(c1)c(C)cn2-c1nc(Nc2cn(CC(F)(F)F)nc2C)ncc1F [Example 165, N-[1-[5-fluoro-2-[[3-methyl-1-(2,2,2-trifluoroethyl)pyrazol-4-yl]amino]pyrimidin-4-yl]-3-methyl-indol-5-yl]prop-2-enamide]
0.1 to 100 nM | 0.1 to 100 nM | 0.1 to 100 nM | 0.1 to 100 nM | 0.1 to 100 nM | C=CC(=O)Nc1ccc2c(c1)c(C)cn2-c1nc(Nc2cnn(CC3(O)CC3)c2)ncc1F [Example 175, N-[1-[5-fluoro-2-[[1-[(1-hydroxycyclopropyl)methyl]pyrazol-4-yl]amino]pyrimidin-4-yl]-3-methyl-indol-5-yl]prop-2-enamide]
0.1 to 100 nM | 0.1 to 100 nM | 0.1 to 100 nM | 0.1 to 100 nM | 0.1 to 100 nM | C=CC(=O)Nc1ccc2c(c1)c(C)cn2-c1nc(Nc2cn(CCO)nc2C)ncc1F [Example 176, N-[1-[5-fluoro-2-[[1-(2-hydroxyethyl)-3-methyl-pyrazol-4-yl]amino]pyrimidin-4-yl]-3-methyl-indol-5-yl]prop-2-enamide]
0.1 to 100 nM | 0.1 to 100 nM | 0.1 to 100 nM | 0.1 to 100 nM | 0.1 to 100 nM | C=CC(=O)Nc1ccc2c(-c3ccnc(Nc4cnn(C5CC5)c4)n3)cn(C)c2c1 [Example 178, N-[3-[2-[(1-cyclopropylpyrazol-4-yl)amino]pyrimidin-4-yl]-1-methyl-indol-6-yl]prop-2-enamide]
0.1 to 100 nM | 0.1 to 100 nM | 0.1 to 100 nM | 100 to 250 nM | 0.1 to 100 nM | Cc1nn(C)cc1Nc1ncc(Cl)c(-n2cc(C)c3cc(NC(=O)/C=C/CN(C)C)cnc32)n1 [Example 180, (E)-N-[1-[5-chloro-2-[(1,3-dimethylpyrazol-4-yl)amino]pyrimidin-4-yl]-3-methyl-pyrrolo[2,3-b]pyridin-5-yl]-4-(dimethylamino)but-2-enamide]
